Results from article PMC7778606, “Development of the phenylpyrazolo[3,4-d]pyrimidine-based, insulin-like growth factor receptor/Src/AXL-targeting small molecule kinase inhibitor” (Theranostics, 2021).

What was measured:
NSCLC cells = test: Anchorage-dependent colony formation assay; type: cell-based, human; settings: subset of NSCLC cells
Description: Cells were seeded into 6-well plates at a density of 300 cells/well and treated with LL6. The drug-containing medium was changed once or twice a week. After incubation for 10-14 days, colonies were fixed with 100% methanol, stained with 0.002% crystal violet solution, and washed with deionized water several times. The colonies were imaged and manually counted.

PC9 cells = test: MTT assay, viability of PC9 cells; type: cell-based; settings: Homo sapiens, PC-9, 48 h, two days, 5% FBS, read-out: IC50 against the viability
Description: Cells were seeded into 96-well plates at a density of 1-2 × 10^3 cells/well and incubated for 24 h. Cells were treated with vehicle or various concentrations of test compounds for two (PC9 and PC9/ER cells) or three (other cells) days. Cells were further incubated with MTT solution (final concentration of 500 μg/mL) for 4 h at 37 °C. The formazan products were dissolved in dimethyl sulfoxide (DMSO), and the absorbance was measured at 570 nm. The data are presented as a percentage of the control group.

Toxicity test in mice = type: in vivo, FVB mice
Description: Blood was collected from euthanized mice under isoflurane-induced deep anesthesia by cardiac puncture. After allowing blood coagulation at 4 °C, serum was collected by centrifugation at 3,000 rpm for 10 min at 4 °C. Analysis of the serum levels of alanine aminotransferase (ALT) and aspartate aminotransferase (AST) was performed using a veterinary hematology analyzer (Fuji DRI-Chem 3500s, Fujifilm, Tokyo, Japan) according to the manufacturer' s protocols.

PAK1 = target: T1, PAK1 (Homo sapiens, UniProt Q13153); test: KINOMEscan competition binding assay; settings: LL6 at 10 μM; read-out: Percent Control
T1 construct: purchased DiscoverX KINOMEscan
Description: (§1) Kd values were obtained by KINOMEscan from DiscoverX (San Diego, CA, USA). To briefly summarize, Kd was measured by a competition binding assay that quantitatively measures the ability of a compound to compete with an immobilized ligand. […] Dose response curves of 11 points are obtained for Kd values, which are measured in duplicate. See more details in the cited references [39]-[42] and see also at www.discoverx.com.

CDK9 = target: T2, CDK9 (Homo sapiens, UniProt P50750); test: KINOMEscan competition binding assay; settings: LL6 at 10 μM; read-out: Percent Control
T2 construct: purchased DiscoverX KINOMEscan
Description: as §1

SRPK3 = target: T3, SRPK3 (Homo sapiens, UniProt Q9UPE1); test: KINOMEscan competition binding assay; settings: LL6 at 10 μM; read-out: Percent Control
T3 construct: purchased DiscoverX KINOMEscan
T3 sequence (Q9UPE1 whole entry): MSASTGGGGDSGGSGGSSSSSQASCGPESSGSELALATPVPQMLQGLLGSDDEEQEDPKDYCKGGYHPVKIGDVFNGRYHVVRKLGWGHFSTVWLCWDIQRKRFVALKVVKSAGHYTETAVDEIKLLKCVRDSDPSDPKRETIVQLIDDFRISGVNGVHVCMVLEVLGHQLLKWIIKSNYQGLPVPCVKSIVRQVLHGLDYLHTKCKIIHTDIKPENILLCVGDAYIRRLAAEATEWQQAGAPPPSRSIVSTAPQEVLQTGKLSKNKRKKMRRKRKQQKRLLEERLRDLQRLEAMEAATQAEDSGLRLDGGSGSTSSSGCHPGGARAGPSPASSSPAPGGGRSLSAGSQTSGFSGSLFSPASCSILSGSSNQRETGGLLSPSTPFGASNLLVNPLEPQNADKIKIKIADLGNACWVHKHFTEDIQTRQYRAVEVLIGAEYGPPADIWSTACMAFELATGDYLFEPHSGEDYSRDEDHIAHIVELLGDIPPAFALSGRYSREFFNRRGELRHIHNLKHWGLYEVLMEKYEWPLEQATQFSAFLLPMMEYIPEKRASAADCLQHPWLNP
Description: as §1

MLK1 = target: T4, MLK1 (Homo sapiens, UniProt P80192); test: KINOMEscan competition binding assay; settings: LL6 at 10 μM; read-out: Percent Control
T4 construct: purchased DiscoverX KINOMEscan
T4 sequence (P80192 whole entry): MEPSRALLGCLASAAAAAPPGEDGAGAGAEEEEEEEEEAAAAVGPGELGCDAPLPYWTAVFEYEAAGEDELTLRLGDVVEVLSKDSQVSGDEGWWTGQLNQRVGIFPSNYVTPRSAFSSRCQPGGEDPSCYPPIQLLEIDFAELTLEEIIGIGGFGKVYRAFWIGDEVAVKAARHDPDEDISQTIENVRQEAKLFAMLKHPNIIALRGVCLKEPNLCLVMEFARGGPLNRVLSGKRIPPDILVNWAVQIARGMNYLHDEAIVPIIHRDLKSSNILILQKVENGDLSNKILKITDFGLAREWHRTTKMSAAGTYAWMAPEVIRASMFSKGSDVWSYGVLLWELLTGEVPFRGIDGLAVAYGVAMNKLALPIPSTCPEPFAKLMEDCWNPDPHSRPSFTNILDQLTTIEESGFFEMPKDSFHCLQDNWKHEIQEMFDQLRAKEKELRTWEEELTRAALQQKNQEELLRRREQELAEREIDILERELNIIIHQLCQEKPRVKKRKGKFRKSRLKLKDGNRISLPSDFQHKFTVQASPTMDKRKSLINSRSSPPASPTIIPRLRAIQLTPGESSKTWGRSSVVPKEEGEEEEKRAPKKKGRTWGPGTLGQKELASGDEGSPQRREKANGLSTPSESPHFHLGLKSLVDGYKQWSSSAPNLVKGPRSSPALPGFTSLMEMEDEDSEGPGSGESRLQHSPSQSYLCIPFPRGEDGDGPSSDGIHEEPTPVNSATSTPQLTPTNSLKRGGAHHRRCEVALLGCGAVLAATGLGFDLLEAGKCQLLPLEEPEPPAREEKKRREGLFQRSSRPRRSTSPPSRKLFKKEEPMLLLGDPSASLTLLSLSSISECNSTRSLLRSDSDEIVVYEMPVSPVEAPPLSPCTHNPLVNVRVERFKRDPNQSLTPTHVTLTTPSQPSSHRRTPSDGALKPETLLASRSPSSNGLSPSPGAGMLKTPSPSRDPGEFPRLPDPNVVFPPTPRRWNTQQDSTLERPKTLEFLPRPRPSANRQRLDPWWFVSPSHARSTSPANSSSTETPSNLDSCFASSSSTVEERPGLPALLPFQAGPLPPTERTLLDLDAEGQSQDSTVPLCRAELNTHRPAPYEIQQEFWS
Description: as §1

DYRK1B = target: T5, DYRK1B (Homo sapiens, UniProt Q9Y463); test: KINOMEscan competition binding assay; settings: LL6 at 10 μM; read-out: Percent Control
T5 construct: purchased DiscoverX KINOMEscan
Description: as §1

IR = target: T6, IR (Homo sapiens, UniProt P06213); test: KINOMEscan competition binding assay
T6 construct: purchased DiscoverX (KINOMEscan service)
T6 sequence (P06213 28-1382): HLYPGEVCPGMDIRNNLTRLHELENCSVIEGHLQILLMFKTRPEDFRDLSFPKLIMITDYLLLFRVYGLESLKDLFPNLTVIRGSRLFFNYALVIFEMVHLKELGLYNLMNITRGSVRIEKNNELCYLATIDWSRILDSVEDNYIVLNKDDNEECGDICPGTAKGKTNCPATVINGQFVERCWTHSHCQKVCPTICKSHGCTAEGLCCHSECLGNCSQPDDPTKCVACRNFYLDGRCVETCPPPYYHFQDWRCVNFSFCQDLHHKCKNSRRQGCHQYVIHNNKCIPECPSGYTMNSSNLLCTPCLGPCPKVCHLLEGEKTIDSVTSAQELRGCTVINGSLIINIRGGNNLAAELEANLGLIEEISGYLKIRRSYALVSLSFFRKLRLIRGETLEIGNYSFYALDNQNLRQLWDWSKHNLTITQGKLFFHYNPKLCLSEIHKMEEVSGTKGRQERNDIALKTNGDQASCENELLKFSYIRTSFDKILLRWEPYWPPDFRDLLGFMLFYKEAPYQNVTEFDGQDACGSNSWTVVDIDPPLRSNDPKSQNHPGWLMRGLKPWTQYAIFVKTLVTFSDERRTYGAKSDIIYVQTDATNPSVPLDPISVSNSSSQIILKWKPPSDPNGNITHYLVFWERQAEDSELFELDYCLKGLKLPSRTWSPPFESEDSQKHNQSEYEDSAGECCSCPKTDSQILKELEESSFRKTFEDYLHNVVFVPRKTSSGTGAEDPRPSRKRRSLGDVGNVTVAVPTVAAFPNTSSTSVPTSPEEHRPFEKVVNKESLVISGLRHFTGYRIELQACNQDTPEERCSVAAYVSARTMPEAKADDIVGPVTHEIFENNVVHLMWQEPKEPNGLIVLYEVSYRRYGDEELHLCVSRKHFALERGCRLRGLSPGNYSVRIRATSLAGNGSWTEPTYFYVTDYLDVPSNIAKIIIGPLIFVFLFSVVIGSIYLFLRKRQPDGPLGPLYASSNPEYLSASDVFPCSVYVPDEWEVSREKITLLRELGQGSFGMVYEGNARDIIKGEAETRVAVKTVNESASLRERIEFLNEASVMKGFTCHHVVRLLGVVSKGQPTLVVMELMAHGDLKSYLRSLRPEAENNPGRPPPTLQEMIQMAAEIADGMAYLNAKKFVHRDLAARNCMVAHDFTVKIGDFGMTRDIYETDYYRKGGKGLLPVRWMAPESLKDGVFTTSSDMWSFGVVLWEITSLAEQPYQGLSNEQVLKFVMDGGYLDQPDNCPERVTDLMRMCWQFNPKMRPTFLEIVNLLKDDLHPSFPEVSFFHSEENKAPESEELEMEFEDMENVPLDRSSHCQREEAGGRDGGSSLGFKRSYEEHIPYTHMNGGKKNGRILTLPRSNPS
Description: as §1

ALK = target: T7, ALK (Homo sapiens, UniProt Q9UM73); test: KINOMEscan competition binding assay; settings: LL6 at 10 μM; read-out: Percent Control
T7 construct: purchased DiscoverX KINOMEscan
Description: as §1

MEK1 = target: T8, MEK1 (Homo sapiens, UniProt Q02750); test: KINOMEscan competition binding assay; settings: LL6 at 10 μM; read-out: Percent Control
T8 construct: purchased DiscoverX KINOMEscan
Description: as §1

KIT(V559D,T670I) = target: T9, KIT(V559D,T670I) (Homo sapiens, UniProt P10721, T670I/V559D); test: KINOMEscan competition binding assay; settings: LL6 at 10 μM; read-out: Percent Control
T9 construct: purchased DiscoverX KINOMEscan
Description: as §1

KIT = target: T10, KIT (Homo sapiens, UniProt P10721); test: KINOMEscan competition binding assay
T10 construct: purchased DiscoverX (KINOMEscan service)
T10 sequence (P10721 26-976): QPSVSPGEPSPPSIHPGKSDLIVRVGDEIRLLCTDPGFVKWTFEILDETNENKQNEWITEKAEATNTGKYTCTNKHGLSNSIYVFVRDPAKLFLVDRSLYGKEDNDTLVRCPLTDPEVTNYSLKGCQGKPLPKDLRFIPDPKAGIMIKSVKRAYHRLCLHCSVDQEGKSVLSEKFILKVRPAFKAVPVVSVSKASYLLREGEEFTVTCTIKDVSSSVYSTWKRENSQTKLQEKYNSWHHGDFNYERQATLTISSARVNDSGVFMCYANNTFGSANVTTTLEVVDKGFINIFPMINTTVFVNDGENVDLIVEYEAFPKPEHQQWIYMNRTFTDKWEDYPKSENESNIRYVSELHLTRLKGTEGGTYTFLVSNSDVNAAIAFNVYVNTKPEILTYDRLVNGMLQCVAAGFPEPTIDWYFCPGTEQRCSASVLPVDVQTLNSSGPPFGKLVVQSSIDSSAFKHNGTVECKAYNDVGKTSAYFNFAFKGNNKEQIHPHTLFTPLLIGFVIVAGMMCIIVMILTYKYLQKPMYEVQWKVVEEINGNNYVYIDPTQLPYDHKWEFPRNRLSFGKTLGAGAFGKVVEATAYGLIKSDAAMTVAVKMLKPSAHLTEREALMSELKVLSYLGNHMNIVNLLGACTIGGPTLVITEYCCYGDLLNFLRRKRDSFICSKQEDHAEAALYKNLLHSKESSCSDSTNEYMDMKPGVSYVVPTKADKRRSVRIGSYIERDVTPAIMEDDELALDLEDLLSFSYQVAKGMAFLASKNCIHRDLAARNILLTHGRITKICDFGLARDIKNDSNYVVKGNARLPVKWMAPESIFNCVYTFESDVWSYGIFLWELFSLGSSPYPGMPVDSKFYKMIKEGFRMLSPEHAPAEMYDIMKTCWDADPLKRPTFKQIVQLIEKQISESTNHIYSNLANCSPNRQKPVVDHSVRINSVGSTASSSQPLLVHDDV
Description: as §1

RAF1 = target: T11, RAF1 (Homo sapiens, UniProt P04049); test: KINOMEscan competition binding assay; settings: LL6 at 10 μM; read-out: Percent Control
T11 construct: purchased DiscoverX KINOMEscan
Description: as §1

MAPKAPK2 = target: T12, MAPKAPK2 (Homo sapiens, UniProt P49137); test: KINOMEscan competition binding assay; settings: LL6 at 10 μM; read-out: Percent Control
T12 construct: purchased DiscoverX KINOMEscan
Description: as §1

YANK3 = target: T13, YANK3 (Homo sapiens, UniProt Q86UX6); test: KINOMEscan competition binding assay; settings: LL6 at 10 μM; read-out: Percent Control
T13 construct: purchased DiscoverX KINOMEscan
Description: as §1

p38-beta = target: T14, p38-beta (Homo sapiens, UniProt Q15759); test: KINOMEscan competition binding assay; settings: LL6 at 10 μM; read-out: Percent Control
T14 construct: purchased DiscoverX KINOMEscan
Description: as §1

MKNK1 = target: T15, MKNK1 (Homo sapiens, UniProt Q9BUB5); test: KINOMEscan competition binding assay; settings: LL6 at 10 μM; read-out: Percent Control
T15 construct: purchased DiscoverX KINOMEscan
Description: as §1

PLK1 = target: T16, PLK1 (Homo sapiens, UniProt P53350); test: KINOMEscan competition binding assay; settings: LL6 at 10 μM; read-out: Percent Control
T16 construct: purchased DiscoverX KINOMEscan
T16 sequence (P53350 whole entry): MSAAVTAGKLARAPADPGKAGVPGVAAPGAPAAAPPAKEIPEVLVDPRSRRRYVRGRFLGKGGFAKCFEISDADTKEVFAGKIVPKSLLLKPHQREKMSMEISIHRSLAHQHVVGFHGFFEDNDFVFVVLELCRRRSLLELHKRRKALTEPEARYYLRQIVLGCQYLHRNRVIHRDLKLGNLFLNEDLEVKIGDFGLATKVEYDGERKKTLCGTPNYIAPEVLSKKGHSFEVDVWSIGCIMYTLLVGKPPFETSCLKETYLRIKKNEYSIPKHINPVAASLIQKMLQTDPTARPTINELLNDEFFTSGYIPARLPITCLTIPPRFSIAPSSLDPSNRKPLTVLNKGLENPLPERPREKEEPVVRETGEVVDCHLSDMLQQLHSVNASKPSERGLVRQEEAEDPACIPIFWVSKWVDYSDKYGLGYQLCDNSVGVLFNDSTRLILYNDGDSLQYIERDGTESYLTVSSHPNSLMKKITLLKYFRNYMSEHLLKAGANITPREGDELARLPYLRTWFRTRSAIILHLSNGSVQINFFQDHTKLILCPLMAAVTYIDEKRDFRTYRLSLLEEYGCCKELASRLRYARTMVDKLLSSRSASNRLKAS
Description: as §1

PLK4 = target: T17, PLK4 (Homo sapiens, UniProt O00444); test: KINOMEscan competition binding assay; settings: LL6 at 10 μM; read-out: Percent Control
T17 construct: purchased DiscoverX KINOMEscan
Description: as §1

[1] = target: T18, JAK2(JH1domain-catalytic) (Homo sapiens, UniProt O60674); test: KINOMEscan competition binding assay; settings: LL6 at 10 μM; read-out: Percent Control
T18 construct: JAK2(JH1domain-catalytic); purchased DiscoverX KINOMEscan
Description: as §1

CDK11 = target: T19, CDK11 (Homo sapiens, UniProt Q9BWU1); test: KINOMEscan competition binding assay; settings: LL6 at 10 μM; read-out: Percent Control
T19 construct: purchased DiscoverX KINOMEscan
T19 sequence (Q9BWU1 whole entry): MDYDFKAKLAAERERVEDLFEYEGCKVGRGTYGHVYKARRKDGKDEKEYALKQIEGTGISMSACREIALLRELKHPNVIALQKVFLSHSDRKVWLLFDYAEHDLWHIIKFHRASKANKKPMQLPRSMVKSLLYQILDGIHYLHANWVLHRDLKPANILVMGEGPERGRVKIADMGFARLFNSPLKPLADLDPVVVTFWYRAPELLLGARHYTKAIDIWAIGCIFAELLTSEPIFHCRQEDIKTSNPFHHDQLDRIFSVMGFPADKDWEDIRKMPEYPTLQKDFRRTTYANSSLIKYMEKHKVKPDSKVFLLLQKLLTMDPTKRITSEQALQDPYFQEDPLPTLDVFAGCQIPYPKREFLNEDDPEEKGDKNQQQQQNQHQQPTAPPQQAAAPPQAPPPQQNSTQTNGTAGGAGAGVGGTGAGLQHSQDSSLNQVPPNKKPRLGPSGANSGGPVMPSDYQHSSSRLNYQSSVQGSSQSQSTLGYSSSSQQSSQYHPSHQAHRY
Description: as §1

JNK2 = target: T20, JNK2 (Homo sapiens, UniProt P45984); test: KINOMEscan competition binding assay; settings: LL6 at 10 μM; read-out: Percent Control
T20 construct: purchased DiscoverX KINOMEscan
Description: as §1

RET = target: T21, RET (Homo sapiens, UniProt P07949); test: KINOMEscan competition binding assay; settings: LL6 at 10 μM; read-out: Percent Control
T21 construct: purchased DiscoverX KINOMEscan
Description: as §1

MAP3K4 = target: T22, MAP3K4 (Homo sapiens, UniProt Q9Y6R4); test: KINOMEscan competition binding assay; settings: LL6 at 10 μM; read-out: Percent Control
T22 construct: purchased DiscoverX KINOMEscan
Description: as §1

IKK-alpha = target: T23, IKK-alpha (Homo sapiens, UniProt O15111); test: KINOMEscan competition binding assay; settings: LL6 at 10 μM; read-out: Percent Control
T23 construct: purchased DiscoverX KINOMEscan
Description: as §1

CDK3 = target: T24, CDK3 (Homo sapiens, UniProt Q00526); test: KINOMEscan competition binding assay; settings: LL6 at 10 μM; read-out: Percent Control
T24 construct: purchased DiscoverX KINOMEscan
Description: as §1

LLC allografts = test: Spontaneous lung metastasis of LLC allografts; type: in vivo, C57BL/6 mice; settings: 80 mg/kg orally, daily for 2 weeks
Description: We used the IVIS-Spectrum microCT and Living Image (ver. 4.2) software (PerkinElmer, Alameda, CA, USA) for monitoring metastatic tumor formation in the lungs. The instrument was operated according to the manufacturer's instruction. To facilitate the detection of photons emitted from metastatic lung tumors, we performed ex vivo imaging analysis. In brief, mice were injected at 60 mg/kg with the 15 mg/mL stock of luciferin prior to anesthesia. After 10-15 min, mice were euthanized, and lung tissues were excised and placed into a 60 mm dish. Tissues were immediately imaged after exposure for 1 min.

[2] = LL6-treated mice vs vehicle-treated control
[3] = LL6 at 10 μM, read-out: Percent Control

In the case of `Nc1ncnc2c1c(-c1ccc(Cl)cc1)nn2CCn1cc(COc2ccc(Nc3nccc(Nc4cnc5ccccc5c4)n3)cc2)nn1` [LL6], the “colony formation, anchorage-dependent” value (NSCLC cells) is reported as “significantly suppressed”, the IC50 (PC9 cells) is reported as over 10 µM and the “histological alterations in major organs, including the lung and liver” value (Toxicity test in mice; H&E-stained tissues) is reported as “did not cause detectable histological alterations”. For the same compound, the “serum ALT level” value (Toxicity test in mice; [2]) was “remained unchanged”, the “serum AST level” value (Toxicity test in mice; [2]) was “remained unchanged” and the body weight (Toxicity test in mice; mice, LL6 20, 40, and 80 mg/kg daily for 2 weeks) was “remained unchanged”. For the same compound, the remaining binding at 10 µM (PAK1) was 100%, the remaining binding at 10 µM (CDK9) was 100% and the remaining binding at 10 µM (SRPK3) was 84%. For the same compound, the remaining binding at 10 µM (MLK1) was 75%, the remaining binding at 10 µM (DYRK1B) was 55% and the Kd (IR; IR, 11-point dose response, duplicate) was “not accurately measurable”. The inhibition at 10 µM (IR; IR, LL6 at 10 µM) was over 65%, the remaining binding at 10 µM (IR; [3]) was 35% and the remaining binding at 10 µM (ALK) was 100%. For the same compound, the remaining binding at 10 µM (MEK1) was 65%, the remaining binding at 10 µM (KIT(V559D,T670I)) was 80% and the Kd (KIT; KIT, 11-point dose response, duplicate) was “did not show dose-dependent inhibition curves”. It also gave an inhibition at 10 µM (KIT; KIT, LL6 at 10 µM) of over 65%, a remaining binding at 10 µM (KIT; [3]) of 1.8% and a remaining binding at 10 µM (RAF1) of 82%. For the same compound, the remaining binding at 10 µM (MAPKAPK2) was 100%, the remaining binding at 10 µM (YANK3) was 100% and the remaining binding at 10 µM (p38-beta) was 65%. It also gave a remaining binding at 10 µM (MKNK1) of 100%, a remaining binding at 10 µM (PLK1) of 100% and a remaining binding at 10 µM (PLK4) of 66%. For the same compound, the remaining binding at 10 µM [1] was 100%, the remaining binding at 10 µM (CDK11) was 13% and the remaining binding at 10 µM (JNK2) was 67%. The remaining binding at 10 µM (RET) was 81%, the remaining binding at 10 µM (MAP3K4) was 75% and the remaining binding at 10 µM (IKK-alpha) was 100%. The remaining binding at 10 µM (CDK3) was 97% and the “metastatic tumor nodules in the lungs” value (LLC allografts) was “significantly decreased”.
